Results from patent publication US20230321059A1, “MEPYRAMINE FOR USE IN THE TOPICAL TREATMENT OF NEUROPATHIC PAIN” (Assistance Publique - Hopitaux de Paris, priority 2020, published 2023).
Read-outs that look alike come from different tables or passages of the source.

Target: T1, human Nav1.7 (Homo sapiens, UniProt Q15858)
T1 construct: expressed in transfected cells; host or cells: HEK 293T
Experiment: Patch clamp recording of heterologously expressed human Nav1.7 currents in HEK 293T cells
Assay type: cell-based
Conditions: for IC50: 50-ms depolarizing pulse to 0 mV, HEK 293T cells, mean±SEM (n=4-10), read-out: IC50 for human Nav1.7 inhibition
Experimental: FIG. 1. A) Families of human Nav1.7 current traces in the presence of increasing concentrations of mepyramine (0-100 μM). The current was elicited by a 50-ms depolarizing pulse to 0 mV from a holding potential of −100 mV (top) or −60 mV (bottom). Voltage steps were applied every 15 s. B) Cumulative dose-response curves for human Nav1.7 inhibition by mepyramine derived from experiments as in A. The IC50 values were 4±0.1 μM at Vh of −60 mV (empty circles) or 15.3±0.1 μM at Vh of −100 mV (filled circles). Each data point is the mean±SEM (n=4-10). C) Representative I-V curve family of hNav1.7 currents recorded using a protocol (inset) where cells were depolarized to a variety of potentials from a holding potential of −100 mV. D) Normalized human Nav1.7 activation curves obtained from experiments as in C. Curves were fit by using a first-order Boltzmann relations (n=16).
Human embryonic kidney (HEK) 293T cells were cultured as described in Hao et al. (Neuron, 2013, 77:899-914) and were recorded 48 hours after co-transfection with human Nav1.7 (hNav1.7) and green fluorescent protein clones. Patch clamp recordings were performed using borosilicate electrodes (Harvard Apparatus) having a resistance of […] when filled with the intracellular solution. Recordings were made at room temperature (20-24° C.) using an Axopatch 200B amplifier (Axon Instruments), filtered at 1 kHz, and digitally sampled at 5-20 kHz. Data acquisition was performed with pClamp 10.2, and data were analyzed using Prism 4 software.
For voltage clamp protocols, currents were leak-subtracted by using a P/6 protocol. Voltage errors were minimized using 75-80% series resistance compensation. Intracellular pipette solution consisted of (mM): 130 CsCl, 10 Hepes, 8 NaCl, 0.4 NaGTP, 4 MgATP, 1 MgCl2, 1 CaCl2 and 10 EGTA (adjusted to pH7.3 with CsOH, ˜300 mOsm/l). […] Stock solution of Mepyramine […] was dissolved in distilled water. Cells were perfused with bath solution at flow rate of 5 mL/min.
The dose-response curve for mepyramine was fitted with the Hill equation: I/Imax=[M]^nH/(IC50^nH+[M]^nH), where IC50 is the half-maximal inhibitory concentration and nH the Hill coefficient. The activation curve (G-V) was fitted using Boltzmann function: G/Gmax=1/(1+exp^[(V1/2−V)/k]) where G/Gmax is the normalized conductance, V1/2 is the voltage of half-maximum conductance activation, and k is the steepness factor. Data were presented as mean±SEM.

[1] = HEK cells, in the absence of histamine and in the absence of H1 receptors

T1 sequence (Q15858 whole entry): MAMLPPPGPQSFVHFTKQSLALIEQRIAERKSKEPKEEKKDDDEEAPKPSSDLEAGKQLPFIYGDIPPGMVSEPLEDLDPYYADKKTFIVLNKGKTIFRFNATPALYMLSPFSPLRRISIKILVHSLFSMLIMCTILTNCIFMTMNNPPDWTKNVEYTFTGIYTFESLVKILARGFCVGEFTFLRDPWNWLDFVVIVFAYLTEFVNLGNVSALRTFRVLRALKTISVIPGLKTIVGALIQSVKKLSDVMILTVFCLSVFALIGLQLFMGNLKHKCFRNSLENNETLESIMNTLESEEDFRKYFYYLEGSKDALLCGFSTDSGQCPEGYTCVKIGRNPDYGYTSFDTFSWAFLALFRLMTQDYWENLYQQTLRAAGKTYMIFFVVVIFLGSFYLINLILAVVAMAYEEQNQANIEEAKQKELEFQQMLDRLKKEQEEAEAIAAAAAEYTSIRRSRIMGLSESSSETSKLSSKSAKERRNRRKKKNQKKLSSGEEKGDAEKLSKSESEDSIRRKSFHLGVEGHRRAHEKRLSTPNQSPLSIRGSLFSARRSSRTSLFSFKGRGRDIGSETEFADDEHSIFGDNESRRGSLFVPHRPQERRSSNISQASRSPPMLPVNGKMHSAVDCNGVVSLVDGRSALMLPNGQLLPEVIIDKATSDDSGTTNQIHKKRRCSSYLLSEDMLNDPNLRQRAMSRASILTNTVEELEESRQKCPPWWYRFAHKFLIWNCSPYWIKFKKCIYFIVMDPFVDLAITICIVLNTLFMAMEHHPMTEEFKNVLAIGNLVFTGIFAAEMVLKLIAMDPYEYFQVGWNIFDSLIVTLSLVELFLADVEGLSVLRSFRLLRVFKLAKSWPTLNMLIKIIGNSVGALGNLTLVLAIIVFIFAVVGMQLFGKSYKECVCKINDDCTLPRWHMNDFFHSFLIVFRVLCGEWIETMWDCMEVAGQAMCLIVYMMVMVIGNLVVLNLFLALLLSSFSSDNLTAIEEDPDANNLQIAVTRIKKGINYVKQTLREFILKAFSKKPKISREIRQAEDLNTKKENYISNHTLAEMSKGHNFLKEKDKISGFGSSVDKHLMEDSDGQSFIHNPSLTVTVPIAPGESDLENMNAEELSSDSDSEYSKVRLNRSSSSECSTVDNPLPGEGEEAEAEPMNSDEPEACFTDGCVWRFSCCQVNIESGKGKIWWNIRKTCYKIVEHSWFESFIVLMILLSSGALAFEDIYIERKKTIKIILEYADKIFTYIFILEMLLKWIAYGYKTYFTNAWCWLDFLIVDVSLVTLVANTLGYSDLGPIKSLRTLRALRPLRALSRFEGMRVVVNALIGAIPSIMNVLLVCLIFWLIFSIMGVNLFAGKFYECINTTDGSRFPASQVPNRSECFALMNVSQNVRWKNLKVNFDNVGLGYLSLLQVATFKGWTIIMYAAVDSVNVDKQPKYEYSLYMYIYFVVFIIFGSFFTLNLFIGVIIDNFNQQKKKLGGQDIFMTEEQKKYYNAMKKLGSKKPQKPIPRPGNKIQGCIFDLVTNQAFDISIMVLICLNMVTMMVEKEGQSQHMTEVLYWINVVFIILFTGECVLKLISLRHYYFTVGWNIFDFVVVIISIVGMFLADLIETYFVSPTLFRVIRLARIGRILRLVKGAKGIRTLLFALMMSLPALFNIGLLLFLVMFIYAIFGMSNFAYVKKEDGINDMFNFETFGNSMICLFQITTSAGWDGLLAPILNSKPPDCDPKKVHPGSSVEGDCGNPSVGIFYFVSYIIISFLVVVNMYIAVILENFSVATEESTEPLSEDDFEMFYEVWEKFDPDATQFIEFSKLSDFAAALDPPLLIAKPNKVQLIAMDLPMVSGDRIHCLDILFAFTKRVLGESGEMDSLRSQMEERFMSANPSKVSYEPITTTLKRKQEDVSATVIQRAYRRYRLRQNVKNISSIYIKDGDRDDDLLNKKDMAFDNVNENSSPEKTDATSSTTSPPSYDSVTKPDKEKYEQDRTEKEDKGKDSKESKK

Structure (SMILES): COc1ccc(CN(CCN(C)C)c2ccccn2)cc1 [mepyramine, N,N-dimethyl-N′-(4-methoxybenzyl)-N′-(2-pyridyl) ethylenediamine]
- Dependence of the effect on H1 receptors [1]: independent of the H1 receptors
- Inhibition of heterologously expressed human Nav1.7 channels [1]: inhibits
- IC50 (Vh of −60 mV): 4 ± 0.1 µM
- IC50 (Vh of −100 mV): 15.3 ± 0.1 µM
